Laboratory results reported in the NIST ThermoML archive (doi:10.1016/j.tca.2013.03.025).

Assay: xn = mol fraction of the nth substance listed
Details: 101 kPa, Liquid; for viscosity: Concentric cylinders viscometry; for mass density: Vibrating tube method

CCCCOC(=O)C(C)O (stereo not given) [butyl 2-hydroxypropanoate] + CC(O)CO
Details	mass density [kg/m3]	viscosity [mPa·s]
288.15 K, x1 = 0.0999	1028.94	49.57
288.15 K, x1 = 0.2	1020.52	32.76
288.15 K, x1 = 0.3	1014.01	22.44
288.15 K, x1 = 0.3999	1008.69	16.49
288.15 K, x1 = 0.4998	1004.11	12.5
288.15 K, x1 = 0.6	999.883	9.662
288.15 K, x1 = 0.6996	996.116	7.754
288.15 K, x1 = 0.7999	992.836	6.357
288.15 K, x1 = 0.9	990.017	5.352
288.15 K, x1 = 1	987.269	4.628
293.15 K, x1 = 0.0999	1025.09	36.74
293.15 K, x1 = 0.2	1016.49	24.82
293.15 K, x1 = 0.3	1009.81	17.35
293.15 K, x1 = 0.3999	1004.36	12.96
293.15 K, x1 = 0.4998	999.672	9.963
293.15 K, x1 = 0.6	995.344	7.814
293.15 K, x1 = 0.6996	991.481	6.325
293.15 K, x1 = 0.7999	988.111	5.256
293.15 K, x1 = 0.9	985.199	4.454
293.15 K, x1 = 1	982.366	3.88
298.15 K, x1 = 0.0999	1021.19	27.81
298.15 K, x1 = 0.2	1012.41	19.18
298.15 K, x1 = 0.3	1005.65	13.58
298.15 K, x1 = 0.3999	1000	10.3
298.15 K, x1 = 0.4998	995.208	8.084
298.15 K, x1 = 0.6	990.768	6.393
298.15 K, x1 = 0.6996	986.821	5.252
298.15 K, x1 = 0.7999	983.363	4.394
298.15 K, x1 = 0.9	980.366	3.772
298.15 K, x1 = 1	977.448	3.307
303.15 K, x1 = 0.0999	1017.29	21.45
303.15 K, x1 = 0.2	1008.34	15.08
303.15 K, x1 = 0.3	1001.42	10.86
303.15 K, x1 = 0.3999	995.637	8.42
303.15 K, x1 = 0.4998	990.737	6.606
303.15 K, x1 = 0.6	986.189	5.339
303.15 K, x1 = 0.6996	982.143	4.426
303.15 K, x1 = 0.7999	978.595	3.741
303.15 K, x1 = 0.9	975.512	3.226
303.15 K, x1 = 1	972.515	2.86
308.15 K, x1 = 0.0999	1013.34	16.82
308.15 K, x1 = 0.2	1004.23	12.05
308.15 K, x1 = 0.3	997.153	8.886
308.15 K, x1 = 0.3999	991.238	6.935
308.15 K, x1 = 0.4998	986.236	5.542
308.15 K, x1 = 0.6	981.583	4.506
308.15 K, x1 = 0.6996	977.444	3.772
308.15 K, x1 = 0.7999	973.812	3.212
308.15 K, x1 = 0.9	970.644	2.796
308.15 K, x1 = 1	967.567	2.481
313.15 K, x1 = 0.0999	1009.36	13.4
313.15 K, x1 = 0.2	1000.07	9.766
313.15 K, x1 = 0.3	992.852	7.317
313.15 K, x1 = 0.3999	986.813	5.772
313.15 K, x1 = 0.4998	981.71	4.666
313.15 K, x1 = 0.6	976.954	3.848
313.15 K, x1 = 0.6996	972.719	3.25
313.15 K, x1 = 0.7999	969.003	2.791
313.15 K, x1 = 0.9	965.755	2.449
313.15 K, x1 = 1	962.603	2.181
318.15 K, x1 = 0.0999	1005.34	10.83
318.15 K, x1 = 0.2	995.893	8.021
318.15 K, x1 = 0.3	988.531	6.099
318.15 K, x1 = 0.3999	982.364	4.873
318.15 K, x1 = 0.4998	977.162	3.982
318.15 K, x1 = 0.6	972.304	3.319
318.15 K, x1 = 0.6996	967.975	2.828
318.15 K, x1 = 0.7999	964.179	2.449
318.15 K, x1 = 0.9	960.848	2.163
318.15 K, x1 = 1	957.624	1.935
323.15 K, x1 = 0.0999	1001.29	8.864
323.15 K, x1 = 0.2	991.678	6.665
323.15 K, x1 = 0.3	984.178	5.141
323.15 K, x1 = 0.3999	978.01	4.159
323.15 K, x1 = 0.4998	972.59	3.435
323.15 K, x1 = 0.6	967.647	2.889
323.15 K, x1 = 0.6996	963.208	2.483
323.15 K, x1 = 0.7999	959.336	2.166
323.15 K, x1 = 0.9	955.922	1.924
323.15 K, x1 = 1	952.631	1.728
